Measured values published in patent US8754036B2, “Method for treating neuropathic pain” (National University Corporation Nagoya University, priority 2007, dated 2014).

Tested on: neurons from primary cortical nerve tissue
Assay: Suppression of Rho kinase activation (neurite lengths, keratan sulfate, Y27632)
Type: cell-based, mice
Protocol: Next, participation of Rho kinase was investigated in order to investigate the action mechanism of keratanase II in the above Experiment 1. The neurons were seeded onto an 8-well chamber to which a test sample was applied by the same manner as in the method of Experiment 1. Twenty-four hours after starting the incubation of the neurons, 15 μM of Y27632 (Rho kinase inhibitor, Sigma) was added to the neurons followed by incubating for 24 hours more. After that, the chamber was fixed with 4% of paraformaldehyde and the neurons were identified by an immunohistochemical means with Neuronal Class IIIβ tubulin (TUJ1) antibody (COVANCE). The neurite lengths were measured of from 80 to 90 neurons per condition, an average value thereof was calculated and shown by a graph. The test sample was the following four types.
(1) that which was applied with 25 μg/mL of poly-L-lysine (Sigma; hereinafter, the same) followed by being applied with 10 μg/mL of laminin (BD Biosciences; hereinafter, the same).
(2) that which was applied with 25 μg/mL of poly-L-lysine followed by being applied with 10 μg/mL of laminin and 20 μg/mL of keratan sulfate (Seikagaku Corporation; hereinafter, the same).
(3) that which was applied with 25 μg/mL of poly-L-lysine followed by being applied with 10 μg/mL of laminin and 40 μg/mL of keratan sulfate. […]

Row | Compound | release of inhibiting action for elongation of neurite lengths induced by keratan sulfate (keratan sulfate on poly-L-lysine/laminin, Y27632 15 μM or Ks36 keratanase II 0.01 U/mL without Y27632) | effect on elongation of the neurite lengths (keratan sulfate 20 or 40 μg/mL on poly-L-lysine/laminin)
1 | C[C@@H](N)[C@H]1CC[C@H](C(=O)Nc2ccncc2)CC1 [Y27632] | released | 
2 | keratan sulfate |  | induces the inhibition
